Test results taken from patent US11708391B2, “Rapaglutins, novel inhibitors of GLUT and use thereof” (The Johns Hopkins University, priority 2016, dated 2023).
Where two headings read alike, the source gives them in different places.

What was measured:
[1] = tested on: DLD-1 GLUT1 gene knock out cells; assay: alamar blue cell viability assay, DLD-1 GLUT1 knock out; type: cell-based
Description: FIGS. 19A-19C. E11 is a specific inhibitor of Glut1. (a)(b) Inhibition of cell proliferation in A549, DLD-1 wild type and Glut1 knock out cells by A18 and E11. (c) Potency of A18 and E11 against the alamar blue assay in A549, DLD-1 wild type and Glut1 knock out cells.
(§1) Up to now, at least 14 different isoforms of GLUTs have been identified in human cells. It was then asked whether A18 and E11 are specific inhibitors of GLUT1. To answer this question, colon cancer DLD-1 wild type and GLUT1 gene knock out cell lines were chosen as a cell model (FIG. 4a). […] GLUTs that are most relevant to cancer are Glut1 and Glut3. To obtain additional evidence, Glut1 and Glut3 in HEK 293T cells were overexpressed and an alamar blue cell viability assay was performed again. […] (see FIGS. 4, 19, 20, 26; Table 4).

[2] = tested on: SRE; assay: SRE reporter gene assay; type: cell-based
Description: (§2) FIGS. 28A-28D. (a) A18 and E11 inhibit NFAT and A18, but not E11, stimulates SRE reporter gene signal. (b) E11 inhibits NFAT, NF-κB and IL2, but not MEF-2 or AP-1 pathways, in Jurkat T cells. (c) Glucose inhibitor stimulates SRE reporter gene signal.

[3] = tested on: HEK 293T FLAG-Glut3; assay: alamar blue assay, HEK 293T Glut3 overexpression cells; type: cell-based
Description: FIGS. 20A-20C. E11 is a specific inhibitor of Glut1. (a) Glut1 and Glut3 protein levels of wild type, Glut1 and Glut3 overexpression cells analyzed by western blotting. (b)(c) Inhibition of cell proliferation in HEK293T, Glut1 and Glut3 overexpression cells by A18 and E11.
as §1

[4] = tested on: T1, glucose transporters; assay: 3-O-methyl-D-[3H] glucose uptake in A549 cells; type: cell-based, human; conditions: read-out: IC50 uptake of 3H-labeled 3-O-methylglucose
T1 construct: IC50 uptake of 3H-labeled 3-O-methylglucose; other: A549 cells; compared with 3-O-methylglucose uptake; other: A549 cells treated with drugs for 1 min; other: A549 cells, glucose uptake assay; other
Description: FIGS. 2A-2D. Inhibition of Glucose Transport by A18 and E11. (a) Inhibition of 3-O-methyl¬D-[3H] glucose uptake in A549 cells by A18. (b) Inhibition of 3-O-methyl-D-[3H] glucose uptake in A549 cells by E11. (c) Inhibition of 2-deoxy-D-[3H] glucose uptake in A549 […] cells by A18. (d) Inhibition of 2-deoxy-D-[3H] glucose uptake in A549 cells by E11.
Direct action on glucose transporters was measured by monitoring uptake of 3H-labeled 3-O-methylglucose, which is transported by glucose transporters but not metabolized further, allowing the assessment of initial rate of glucose uptake. […] Initial uptake can also be assessed by measuring the uptake of 3H-labeled 2-deoxy-D-glucose, which gets into the cell through glucose transporters and is phosphorylated by hexokinase but cannot be metabolized further due to the lack of oxygen at the second position.

[5] = tested on: A549 lung cancer cells; assay: alamar blue cell viability assay, A549; type: cell-based, human
Description: FIG. 9. Heat map of the screening results. Scale: 0 (red), complete inhibition; 1 (green), no inhibition. Screening of the rapafucin library for toxicity hits against A549 lung cancer cells using alamar blue assay.
A 45,000 compound and 3000 pool rapafucin library were screened using the alamar blue cell viability assay with the human non-small cell lung cancer (NSCLC) cell line A549. […] Several potent rapafucin hits were discovered to inhibit cell proliferation of A549. […] Each was resynthesized on preparative scale, purified by silica gel chromatography, followed by HPLC purification, and subjected to a series of detailed structure characterization (schemes I and II; FIGS. 10-14).
Dose-dependent inhibition of cell proliferation by A18 and E11 was next evaluated in several other human cancer cell lines, including breast cancer HCC1954, pancreatic cancer PANC10.05, leukemia Jurkat T and colon cancer RKO (FIGS. 1b and 1c). […] (FIGS. 1 and 9; Table 3)

[6] = tested on: HEK 293T cells
[7] = tested on: NF-κB; assay: NF-κB pathway reporter in Jurkat T cells; type: cell-based
Description: as §2

[8] = tested on: HEK 293T cells; assay: Western blot for DNA damage and apoptosis markers in HEK 293T; conditions: 72 h (DNA damage), 24 h (apoptosis)

Molecule	inhibition of cell proliferation, alamar blue [1]	SRE reporter gene signal [2]	IC50 ([3]; Homo sapiens, HEK 293T FLAG-Glut3) [nM]	IC50 [4] [nM]	IC50 ([5]; Homo sapiens) [nM]	DNA damage or apoptosis (phosphor-p53, active caspase 3, 7 and 9) [6]	inhibition in alamar blue cell viability assay ([3]; GLUT3 overexpression HEK 293T cells)	IC50 alamar blue assay ([3]; HEK 293T FLAG-Glut3)	IC50 [5] [nM]	NF-κB pathway [7]	DNA damage or apoptosis (phosphor-p53, active caspase 3, 7 and 9) [8]
CC[C@@H](C)[C@H]1C(=O)NCC(=O)N(C)CC/C=C/C(=O)OCC(C)(C)C(=O)C(=O)N2CCCC[C@H]2C(=O)O[C@H](CCc2ccc(OC)c(OC)c2)c2cccc(c2)NC(=O)CCC(=O)N(C)[C@@H](CC(C)C)C(=O)N[C@H](Cc2ccccc2)C(=O)N1C [A18]	strongly inhibited	stimulates	2350	18.7	189	do not induce DNA damage or apoptosis					
Gly-^MSerBu-Nal-^MAla [E11]	didn't show any inhibition			38.2			didn't show any inhibition	No activity	367	inhibits	do not induce DNA damage or apoptosis
